Data reported in patent US10077436B2, “Beta-glucosidase enzymes for increased biomass saccharification” (Edeniq, Inc., priority 2013, dated 2018).

Target: T1, Aspergillus niger beta-glucosidase, wild type, yEdQ745-BG (CAB75696.1, SEQ ID NO:2) (Aspergillus niger, UniProt Q9P8F4)
T1 construct: strain yEdQ745
T1 sequence (Q9P8F4 20-860): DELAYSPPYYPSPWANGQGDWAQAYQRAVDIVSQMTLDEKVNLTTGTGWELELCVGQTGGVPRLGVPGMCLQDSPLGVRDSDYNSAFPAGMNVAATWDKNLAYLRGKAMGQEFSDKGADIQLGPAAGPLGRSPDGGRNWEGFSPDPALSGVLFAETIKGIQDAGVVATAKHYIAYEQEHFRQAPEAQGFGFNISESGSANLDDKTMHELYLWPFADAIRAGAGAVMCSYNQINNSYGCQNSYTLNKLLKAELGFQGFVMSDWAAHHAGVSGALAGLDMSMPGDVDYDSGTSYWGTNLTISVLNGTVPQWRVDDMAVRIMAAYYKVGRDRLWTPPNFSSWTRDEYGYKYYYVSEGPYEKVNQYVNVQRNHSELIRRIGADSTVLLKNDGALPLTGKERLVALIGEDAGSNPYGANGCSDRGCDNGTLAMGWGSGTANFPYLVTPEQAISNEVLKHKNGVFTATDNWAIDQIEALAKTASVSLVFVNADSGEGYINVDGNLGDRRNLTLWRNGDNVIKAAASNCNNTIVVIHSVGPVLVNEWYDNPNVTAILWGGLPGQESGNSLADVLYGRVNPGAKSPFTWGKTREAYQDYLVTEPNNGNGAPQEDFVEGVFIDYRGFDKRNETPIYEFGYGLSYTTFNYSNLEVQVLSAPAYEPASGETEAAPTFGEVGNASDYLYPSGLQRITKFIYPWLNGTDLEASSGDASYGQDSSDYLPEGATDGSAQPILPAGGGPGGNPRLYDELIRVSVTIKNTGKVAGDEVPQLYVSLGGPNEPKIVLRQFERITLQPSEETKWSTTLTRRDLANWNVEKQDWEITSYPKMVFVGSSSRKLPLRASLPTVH
Test: BG kinetics, cellobiose hydrolysis assay (HPLC) with glucose as competitive inhibitor, yEdQ745-BG
Type: biochemical
Description: Accordingly, in some embodiments, the unmodified form of the beta-glucosidase is a wild-type or a naturally occurring beta-glucosidase, such as, for example, a fungal beta-glucosidase. The full nucleic acid and amino acid sequence for numerous fungal beta-glucosidases are available. The amino acid sequence of A. niger beta-glucosidase is provided as SEQ ID NO:2. Thus, in some embodiments, the unmodified beta-glucosidase is from an Aspergillus species. In some embodiments, the unmodified beta-glucosidase is from a Trichoderma species.
The beta-glucosidase (BG) gene from Aspergillus niger (Accession #CAB75696.1) was integrated into the TR3 yeast background at the T4U3 genomic site.
The BG-expressing strains were subsequently used in corn mash and corn stover simultaneous saccharification and fermentation (SSF) studies using flask scale and pilot plant fermentations. A 12-gallon corn stover fermentation was performed at 40° C. in which the beta-glucosidase secreting yeast strain was co-inoculated with three other engineered yeast strains individually expressing endoglucanase II, CBH1, and CBHII. Surviving TR3 Saccharomyces cerevisiae yeast strains individually expressing BG, EGII, CBH1 or CBH2 were recovered by plating onto solid medium. A clonal population of BG-secreting yeast was isolated and the BG gene integration confirmed. […]

OC[C@H]1OC(O)[C@H](O)[C@@H](O)[C@@H]1O (some centres unmarked) [glucose]
Ki: 1560 ± 290 µM
Km/Ki (inhibitor influence, Km for cellobiose / Ki for glucose, pH 4.8, 50° C.): 0.93
